We go through 3 substances from patent US7164002B2, “FVIIa antagonists” (Genentech, Inc., priority 2002, dated 2007).

The target in experiment [1] is T1, TF-FVIIa (Homo sapiens, UniProt P08709). The note with it: literature, cited from earlier work; for maximal extent of inhibition of the amidolytic activity: saturating concentrations of peptide.
Target sequence in this assay (P13726 33-251 partner limits assumed, one chain of several): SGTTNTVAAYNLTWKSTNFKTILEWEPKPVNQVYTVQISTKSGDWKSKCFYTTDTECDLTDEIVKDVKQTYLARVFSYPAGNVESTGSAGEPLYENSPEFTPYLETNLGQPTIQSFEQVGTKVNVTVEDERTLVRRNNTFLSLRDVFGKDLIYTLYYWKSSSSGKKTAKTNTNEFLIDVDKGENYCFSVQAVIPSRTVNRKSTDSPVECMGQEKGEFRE
Experiment [2] deals with T1, TF-FVIIa. The note with it: literature, cited from earlier work; for maximal inhibition of FX activation: saturating concentrations of peptide.
Target sequence in this assay (P13726 33-275 partner limits assumed, one chain of several): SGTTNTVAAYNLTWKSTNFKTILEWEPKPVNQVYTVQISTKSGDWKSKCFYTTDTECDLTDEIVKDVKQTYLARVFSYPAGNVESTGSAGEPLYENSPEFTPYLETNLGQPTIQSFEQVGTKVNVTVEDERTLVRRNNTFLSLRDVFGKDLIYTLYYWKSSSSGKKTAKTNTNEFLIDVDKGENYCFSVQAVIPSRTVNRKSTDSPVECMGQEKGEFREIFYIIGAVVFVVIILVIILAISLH
Experiment [3] deals with citrated pooled normal human plasma. The experiment is described as follows: Prothrombin time (PT) clotting assay initiated by TF and Ca2+. It counts as biochemical. Conditions: Innovin.
Method: The prothrombin time (PT) assay was performed in citrated pooled normal human plasma as described previously (Dennis, M. S., et al., (2000) Nature, 404: 465–470). Clotting times were determined using an ACL 300 Coagulation Analyzer (Coulter Corp., Miami, Fla.) using Innovin (human relipidated TF and Ca2+) from Dade International Inc. to initiate the assay.
A further experiment concerns the target T2, FVIIa (Homo sapiens, UniProt P08709).
T2 sequence (P08709 213-466 limits assumed): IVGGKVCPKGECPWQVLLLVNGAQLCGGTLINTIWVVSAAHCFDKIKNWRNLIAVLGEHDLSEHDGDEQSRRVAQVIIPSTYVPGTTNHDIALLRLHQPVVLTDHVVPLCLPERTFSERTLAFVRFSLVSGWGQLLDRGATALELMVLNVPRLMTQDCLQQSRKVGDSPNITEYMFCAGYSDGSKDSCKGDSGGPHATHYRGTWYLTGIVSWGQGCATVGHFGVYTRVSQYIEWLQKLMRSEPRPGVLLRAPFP
T2 sequence (P08709 61-212 limits assumed): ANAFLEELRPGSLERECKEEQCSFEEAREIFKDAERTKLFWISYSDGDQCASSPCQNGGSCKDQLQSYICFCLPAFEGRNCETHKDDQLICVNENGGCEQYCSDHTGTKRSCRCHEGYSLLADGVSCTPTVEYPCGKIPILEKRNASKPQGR
The note with it: pH 7.2; read-out: binding constant Kd to FVIIa; cited from earlier work.

The target of experiment [4] is T1, TF-FVIIa. The experiment is described as follows: Inhibition of TF-FVIIa catalyzed activation of FX. Type of experiment: biochemical. The note with it: saturating peptide.
Target sequence in this assay (P13726 33-275 partner limits assumed, one chain of several): as the sequence (P13726 33-275 partner limits assumed, one chain of several) above
Method: Inhibition of FX activation by TF-VIIa was determined with 300 pM relipidated TF1-243, 20 pM FVIIa , and 165 nM FX at 25° C. as a function of peptide concentration essentially as described (Dennis, M. S., et al., (2000) Nature, 404: 465–470; Kelley, R. F., et al., (1997) Blood, 89: 3219–3227). TF was incorporated into phospholipid vesicles and quantified as previously described (Kelley, R. F., et al., (1997) Blood, 89: 3219–3227). The linear rates of FXa generation can be expressed as mOD405/min/min or as fractional activities (vi/v0).

For EEWEVACWTWETCER [Peptide E-76], the “maximal extent of inhibition of the amidolytic activity” value at TF-FVIIa [1] is listed as 50%. Also, on TF-FVIIa [2], the “IC50 for inhibition of activation of FX to FXa by TF-FVIIa” value is “nanomolar range” and the “maximal inhibition of FX activation” value is listed as 90%.

The term Kd denotes the constant that tells how readily two partners part at equilibrium. Regarding EEWEVLCWTWETCER [Peptide A-183], the “fold prolongation of the clotting time” value in experiment [3] stood at 1.6 fold. Further, on TF-FVIIa [1], the “inhibition of amidolytic activity (in words)” value is “potent but incomplete inhibition” and the “maximal extent of inhibition of the amidolytic activity” value was 32%. In addition, the Kd on FVIIa is 2.8 nM. On TF-FVIIa [2], the “IC50 for inhibition of activation of FX to FXa by TF-FVIIa” value is on record as “nanomolar range” and the “maximal inhibition of FX activation” value was 78%.

Take Z-GGSGGDDDDK-EEWEVLCWTWETCER [Z-A-183]: the “extent of inhibition of FX activation upon saturation” value at TF-FVIIa [4] is 80%.
